Where two headings read alike, the source gives them in different places.
Key:
[1] = cited from earlier work
[2] = 10 or 40 mg once daily; ICH E14 definitions; cited from earlier work
[3] = cited from earlier work; remark: listed apart in the source
[4] = system: SERT; conditions: Japanese and white male individuals, cited from earlier work
[5] = system: 5-HT3 receptor; conditions: in vitro; cited from earlier work
[6] = system: P-glycoprotein (Pgp) transporter; conditions: cited from earlier work
[7] = molecular target: T1, CYP2A6 (Homo sapiens, UniProt P11509); assay: In-vitro CYP inhibition in pooled human liver microsomes; type: in vitro ADME; conditions: data on file
T1 sequence (P11509 1-494): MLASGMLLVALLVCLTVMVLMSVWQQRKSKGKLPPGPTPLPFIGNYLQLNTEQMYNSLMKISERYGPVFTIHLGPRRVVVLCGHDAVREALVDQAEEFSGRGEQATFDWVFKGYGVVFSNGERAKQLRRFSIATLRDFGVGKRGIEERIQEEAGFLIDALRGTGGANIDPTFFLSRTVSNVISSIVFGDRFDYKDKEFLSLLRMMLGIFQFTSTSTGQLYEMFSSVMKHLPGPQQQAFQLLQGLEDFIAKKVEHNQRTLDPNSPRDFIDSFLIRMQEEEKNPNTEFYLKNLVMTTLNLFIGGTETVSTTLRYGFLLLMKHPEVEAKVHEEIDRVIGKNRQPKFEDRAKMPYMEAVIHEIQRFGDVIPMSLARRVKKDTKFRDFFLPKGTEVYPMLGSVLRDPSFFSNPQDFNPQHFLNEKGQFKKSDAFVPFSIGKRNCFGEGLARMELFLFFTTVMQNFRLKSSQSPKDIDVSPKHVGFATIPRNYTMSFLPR

[8] = Distribution coefficient; type: physicochemical; conditions: data on file
[9] = molecular target: CYP2D6 (Homo sapiens, UniProt P10635); assay: In-vitro CYP inhibition in pooled human liver microsomes; type: in vitro ADME; conditions: data on file
[10] = cited from earlier work; remark: listed apart in the source
[11] = cited from earlier work; remark: listed apart in the source
[12] = molecular target: T2, CYP1A2 (Homo sapiens, UniProt P05177); assay: In-vitro CYP inhibition in pooled human liver microsomes; type: in vitro ADME; conditions: data on file
T2 sequence (P05177 1-516): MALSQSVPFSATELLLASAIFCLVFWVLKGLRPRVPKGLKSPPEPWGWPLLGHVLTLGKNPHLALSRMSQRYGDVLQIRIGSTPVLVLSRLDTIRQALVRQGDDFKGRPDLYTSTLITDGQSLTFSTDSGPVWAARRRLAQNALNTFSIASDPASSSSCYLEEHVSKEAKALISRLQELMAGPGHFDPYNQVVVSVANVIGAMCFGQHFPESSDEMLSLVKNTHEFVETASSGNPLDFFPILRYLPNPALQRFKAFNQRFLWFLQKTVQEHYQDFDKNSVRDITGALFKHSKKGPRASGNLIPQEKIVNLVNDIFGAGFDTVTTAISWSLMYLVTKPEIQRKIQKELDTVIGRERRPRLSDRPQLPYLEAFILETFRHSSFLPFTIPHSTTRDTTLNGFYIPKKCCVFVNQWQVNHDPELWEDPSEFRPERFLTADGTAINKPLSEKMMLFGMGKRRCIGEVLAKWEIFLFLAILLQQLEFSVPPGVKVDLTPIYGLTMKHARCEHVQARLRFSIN

[13] = molecular target: CYP2C9 (Homo sapiens, UniProt P11712); assay: as above; type: in vitro ADME
[14] = molecular target: CYP2E1 (Homo sapiens, UniProt P05181); assay: as above; type: in vitro ADME; conditions: data on file
[15] = cited from earlier work; remark: listed apart in the source
[16] = Effect of sex, age and race/ethnicity on pharmacokinetics; type: in vivo, human
[17] = cited from earlier work; remark: listed apart in the source
[18] = cited from earlier work; remark: listed apart in the source
[19] = cited from earlier work; remark: listed apart in the source
[20] = bupropion 150 mg twice daily with vortioxetine 10 mg once daily
[21] = fluconazole 200 mg once daily with vortioxetine 10 mg
[22] = ketoconazole 400 mg once daily with vortioxetine 10 mg
[23] = rifampin 600 mg daily with vortioxetine 20 mg
[24] = mild-to-moderate hepatic impairment, single dose 10 mg (Fig. 2)
[25] = severe hepatic impairment, single dose 5 mg
[26] = within 360 h, single 50-mg 14C dose
[27] = multiple doses of 2.5, 5, and 20 mg, male, data on file
[28] = simulation, 20 mg at steady state

Chain of CYP2C9 (P11712 whole entry): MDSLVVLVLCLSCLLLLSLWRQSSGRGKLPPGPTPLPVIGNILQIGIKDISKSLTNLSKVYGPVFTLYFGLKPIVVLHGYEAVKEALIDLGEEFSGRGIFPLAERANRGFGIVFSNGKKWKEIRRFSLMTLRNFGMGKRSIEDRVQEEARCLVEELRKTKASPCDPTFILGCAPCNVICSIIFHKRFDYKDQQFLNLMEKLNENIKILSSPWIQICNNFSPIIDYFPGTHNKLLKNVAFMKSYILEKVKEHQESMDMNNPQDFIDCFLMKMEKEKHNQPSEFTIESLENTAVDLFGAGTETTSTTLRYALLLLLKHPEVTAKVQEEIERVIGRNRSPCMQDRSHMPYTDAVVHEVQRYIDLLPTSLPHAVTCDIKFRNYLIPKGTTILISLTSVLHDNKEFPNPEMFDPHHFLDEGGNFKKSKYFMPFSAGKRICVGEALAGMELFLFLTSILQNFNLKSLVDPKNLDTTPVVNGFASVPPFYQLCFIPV
Chain of CYP2E1 (P05181 whole entry): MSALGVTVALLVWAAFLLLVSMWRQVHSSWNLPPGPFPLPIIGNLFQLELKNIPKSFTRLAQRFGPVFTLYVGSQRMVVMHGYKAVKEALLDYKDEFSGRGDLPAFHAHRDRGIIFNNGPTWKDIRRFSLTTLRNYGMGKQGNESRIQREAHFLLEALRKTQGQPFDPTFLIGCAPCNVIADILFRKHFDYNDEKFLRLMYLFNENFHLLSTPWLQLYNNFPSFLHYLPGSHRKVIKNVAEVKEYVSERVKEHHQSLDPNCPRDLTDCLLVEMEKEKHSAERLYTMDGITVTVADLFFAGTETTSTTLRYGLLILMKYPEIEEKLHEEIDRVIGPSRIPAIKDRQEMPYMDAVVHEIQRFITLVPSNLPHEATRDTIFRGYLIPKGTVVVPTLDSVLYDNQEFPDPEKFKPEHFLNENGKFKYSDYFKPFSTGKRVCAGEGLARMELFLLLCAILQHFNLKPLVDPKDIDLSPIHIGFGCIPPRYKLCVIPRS
Chain of CYP2D6 (P10635 whole entry): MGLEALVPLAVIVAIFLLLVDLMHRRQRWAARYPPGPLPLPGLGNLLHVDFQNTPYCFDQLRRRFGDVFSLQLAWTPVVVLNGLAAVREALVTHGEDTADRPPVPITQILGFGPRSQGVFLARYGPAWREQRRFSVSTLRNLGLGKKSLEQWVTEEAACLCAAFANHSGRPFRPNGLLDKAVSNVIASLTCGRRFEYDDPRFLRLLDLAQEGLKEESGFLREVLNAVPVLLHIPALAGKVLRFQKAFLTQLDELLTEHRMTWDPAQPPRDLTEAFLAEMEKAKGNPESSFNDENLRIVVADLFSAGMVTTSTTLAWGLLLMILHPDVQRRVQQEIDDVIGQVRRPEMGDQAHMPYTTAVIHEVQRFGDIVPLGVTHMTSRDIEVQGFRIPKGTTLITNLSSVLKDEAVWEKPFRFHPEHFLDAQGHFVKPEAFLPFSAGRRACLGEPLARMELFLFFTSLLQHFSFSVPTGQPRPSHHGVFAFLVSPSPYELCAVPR

Br.Cc1ccc(Sc2ccccc2N2CCNCC2)c(C)c1 [vortioxetine, 1-[2-(2,4-dimethyl-phenylsulfanyl)-phenyl]-piperazine, hydrobromide]
AUC(0–24) increase of vortioxetine [1, 20]: 2.3 fold | C max increase of vortioxetine [1, 20]: 2.1 fold | AUC(0–t) and C max of vortioxetine with a Pgp inhibitor ([1]; co-administered with ketoconazole): marginally increased | effect on exposure to vortioxetine ([1]; co-administration of aspirin): no effect | effect on exposure to vortioxetine ([1]; co-administration of ethanol): no effect | effect on exposure to vortioxetine ([1]; co-administration of omeprazole): no effect | AUC(0–t) increase of vortioxetine [1, 21]: 46% | C max increase of vortioxetine [1, 21]: 15% | AUC(0–t) increase of vortioxetine [1, 22]: 30% | C max increase of vortioxetine [1, 22]: 26% | AUC(0–t) decrease of vortioxetine [1, 23]: 72% | C max decrease of vortioxetine [1, 23]: 51% | effect on cardiac repolarization [2]: unlikely to affect cardiac repolarization | fraction of unbound parent drug, hepatically impaired vs healthy [3]: no differences | AUC(0–t) lower than healthy cohorts [3, 24]: up to 9% | C max lower than healthy cohorts [3, 24]: up to 16% | AUC(0–t) higher than healthy controls [3, 25]: 10% | C max lower than healthy controls [3, 25]: 24% | SERT occupancy ([4]; 5-mg dose): approximately 50% | SERT occupancy ([4]; 10-mg dose): ~65% | SERT occupancy ([4]; 20-mg dose): above 80% | action at 5-HT3 receptor [5]: antagonist | I/half maximal inhibitory concentration (Pgp efflux) [6]: smaller than 0.1 | Pgp substrate in vitro ([6]; in vitro): poor substrate | inhibition of Pgp transport in vitro ([6]; in vitro): weak inhibitor | inhibitory in-vitro effect on CYP2A6 [7]: no inhibitory in-vitro effect | distribution coefficient (octanol/water) ([8]; pH 3, 25 °C): 2.2 | distribution coefficient (octanol/water) ([8]; pH 11, 25 °C): 4.7 | inhibitory in-vitro effect on CYP2D6 [9]: no inhibitory in-vitro effect | parent drug detected in the feces ([10]; single 50-mg 14C dose, feces only): 1.5% | drug concentration in plasma relative to whole blood ([10]; single oral dose 50 mg 14C-labeled): double | drug-related material recovered in feces [10, 26]: 26% | drug-related material recovered in urine [10, 26]: 59% | drug-related material recovered in urine and feces [10, 26]: approximately 85% | hepatic clearance, contribution to CL/F [11]: 99% | renal clearance of parent drug, contribution to CL/F [11]: < 1% | inhibitory in-vitro effect on CYP1A2 [12]: no inhibitory in-vitro effect | ratio of maximum plasma concentration of inhibitor (I) and Ki ([13]; CYP2C9, much smaller than): smaller than 0.1 | inhibitory effect on CYP2C9 ([13]; pooled human liver microsomes, CYP isozyme-specific probe substrates, data on file): inhibitory effect | inhibitory in-vitro effect on CYP2E1 [14]: no inhibitory in-vitro effect | arachidonic acid-, adenosine diphosphate-, or collagen-induced platelet aggregation ([15]; vortioxetine 10 mg added to aspirin 150 mg): did not change | International Normalized Ratio or prothrombin times between groups ([15]; vortioxetine 10 mg with stable warfarin doses (1–10 mg), day 14): no difference | AUC(0–24) higher in elderly than young subjects ([16]; multiple 10-mg doses (Fig. 2)): 27% | C max higher in elderly than young subjects ([16]; multiple 10-mg doses (Fig. 2)): 23% | AUC(0–24) higher in female than male subjects ([16]; multiple doses (Fig. 2)): 27% | C max higher in female than male subjects ([16]; multiple doses (Fig. 2)): 24% | AUC(0–24) higher in Japanese than white participants [16, 27]: 8% | C max higher in Japanese than white participants [16, 27]: 9% | plasma protein binding, renally compromised vs healthy controls [17]: no difference | C max lower than healthy controls ([17]; end-stage renal disease, single dose 10 mg (Fig. 2)): 27% | predicted exposure, difference from healthy control group ([17]; linear regression on creatinine clearance): ≤ 30% | AUC(0–t) higher than healthy controls ([17]; mild renal impairment, single dose 10 mg): 9% | C max difference from healthy controls ([17]; mild, moderate, or severe renal impairment, single dose 10 mg): ≤ 11% | AUC(0–t) higher than healthy controls ([17]; moderate renal impairment, single dose 10 mg): 16% | AUC(0–t) higher than healthy controls ([17]; severe renal impairment, single dose 10 mg): 11% | tolerability regardless of degree of renal or hepatic impairment [18]: well tolerated | tolerability of combination [18, 23]: well tolerated | estimated CL/F ([19]; CYP2D6 EMs): 34.1 L/h | estimated CL/F ([19]; CYP2D6 IMs): 26.6 L/h | estimated CL/F ([19]; CYP2D6 PMs): 18.1 L/h | estimated CL/F ([19]; CYP2D6 UMs): 52.9 L/h | oral clearance, CYP2C19 EMs relative to PMs [19]: 1.4 times | oral clearance, CYP2D6 EMs higher than PMs [19]: approximately two-fold | exposure in CYP2D6 PMs relative to CYP2D6 EMs ([19]; expected): twice as high | population mean AUC lower in CYP2D6 UMs than EMs ([19]; expected): 35.5% | estimated minimal lag time ([19]; oral): 0.781 h | mean oral clearance ([19]; phase I population-PK analysis): 33 L/h | AUC(0–24) higher, 75-year-old vs 40-year-old [19, 28]: 40% | AUC(0–24) lower, 18-year-old vs 40-year-old [19, 28]: 15% | C max higher, 75-year-old vs 40-year-old [19, 28]: 38% | C max lower, 18-year-old vs 40-year-old [19, 28]: 14% | C max and AUC(0–24) higher, 155 cm vs 175 cm person ([19]; simulation, 20 mg): 5% | C max and AUC(0–24) lower, 187 cm vs 175 cm person ([19]; simulation, 20 mg): 4%

Source: article PMC5973995 (Clinical Pharmacokinetics, 2017)
